Eleven compounds from PubChem BioAssay (NCI) can be followed below.

Holding throughout (assay): NCI anticancer screen, dose series, 48 h
Test [1] concerns SF-268 CNS.
The subject of test [2] is SK-MEL-28 melanoma.
Test [3] concerns A549 NSCLC.
In test [4] the test system is SF-539 CNS.
The test system of test [5] is BT-549 breast.
For test [6], the system named is RPMI-8226 leukemia.
The subject of test [7] is KM12 colon.
Test [8] has as its system U251 CNS.
In test [9] the test system is A498 renal.
The subject of test [10] is SW-620 colon.

SMILES strings stand for the structures.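 Step 1: Grow cells in 96-well plates. Step 2: Expose to compound for 48 hours at 5 concentrations. Step 3: Interpolate endpoints linearly; if unreached, use highest concentration. At the GI50, growth is halved. TGI: total growth inhibition.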

`NS(=O)(=O)c1ccc(Nc2cc(-c3cccc(O)c3)[nH]n2)cc1`: the GI50 was more than 25 µM in test [1]; more than 25 µM in [2]; more than 25 µM in test [3]; 20500 nM in test [4]; more than 24100 nM in test [5]; more than 25000 nM in [6]. Also, the GI50 is more than 23700 nM in test [7], 24400 nM in test [8], more than 25 µM in test [9] and more than 25000 nM in test [10]. Moreover, the TGI in test [1] was more than 25 µM; in [2] it was more than 25 µM; in [3], more than 25 µM; in test [4], more than 25000 nM; in test [5], more than 25 µM; in test [6] it was more than 25 µM. The TGI in [7], in [8], in test [9] and in test [10] was more than 25 µM each time.
For `CCN(CCCN(C)C)Cc1cc(I)cc(C)c1O`, the GI50 in test [1] is 18.7 µM; in test [2], 18 µM; in test [3], 28.3 µM; in [4], 14800 nM; in [5], 12700 nM; in test [6], 15100 nM. Further, the GI50 in [7] is 20000 nM; in [8], 21200 nM; in test [9] it was 20.4 µM; in [10] it was 17100 nM. Moreover, the TGI stood at 45.7 µM in test [1]; 36.3 µM in test [2]; 90 µM in test [3]; 29000 nM in test [4]; 27.9 µM in [5]; 34 µM in test [6]. In addition, the TGI came out at 44.7 µM in test [7], 43.6 µM in [8], 38.6 µM in [9] and 31.9 µM in test [10].
For `CC(C)(C)c1ccc(S(=O)(=O)Oc2ccc3c4c(c(=O)oc3c2)CCCCC4)cc1`, the GI50 in test [1] is 39.7 µM; in [2] it was 24.1 µM; in test [3], 14.2 µM; in [4], 24200 nM; in test [5] it was 17700 nM; in test [6], 3180 nM. Besides, the GI50 in test [7] is more than 100000 nM; in [8], 12500 nM; in [9] it was 6.53 µM; in [10], 85600 nM. The TGI in [1] is more than 100 µM; in test [2], more than 100 µM; in test [3], 39.8 µM; in test [4] it was more than 100000 nM; in test [5] it was more than 100 µM; in test [6] it was more than 100 µM. The TGI was more than 100 µM in test [7], 54.4 µM in [8], 36.3 µM in test [9] and more than 100 µM in test [10].
With `COc1ccc(/C=C/C(=O)c2cc(OC)c(OC)c(OC)c2)cc1OCC(=O)Nc1nc2ccc(OC(F)(F)F)cc2s1`, the GI50 in test [1] is 1.2 µM; in test [2], 3.31 µM; in [3], 1.99 µM; in test [4], 293 nM; in test [5], 2710 nM; in test [6], 2020 nM. Besides, the GI50 in test [7] is 1510 nM; in test [8] it was 703 nM; in test [9], 7.4 µM; in test [10] it was 1080 nM. Further, the TGI is 8.5 µM in test [1]; 25.9 µM in [2]; 4.7 µM in [3]; 1180 nM in test [4]; 29.6 µM in test [5]; more than 100 µM in test [6]. In addition, the TGI in test [7] is 4.19 µM; in [8], 2.58 µM; in test [9], 31.7 µM; in test [10] it was more than 100 µM.
On to `CC(=O)Nc1ccc2c(c1)C(c1ccccc1Cl)=Nc1c(n[nH]c1C)N2`, for which the GI50 in test [1] is 3.01 µM; in test [2], more than 23.5 µM; in [3] it was 4.46 µM; in test [4] it was 999 nM; in [5] it was 6580 nM; in test [6] it was more than 25000 nM. Moreover, the GI50 in test [7] was 253 nM; in test [8], 1100 nM; in test [9], 0.746 µM; in test [10] it was 1550 nM. Moreover, the TGI in test [1] was more than 21.4 µM; in [2], more than 25 µM; in [3], more than 25 µM; in test [4], 12500 nM; in test [5], more than 25 µM; in [6], more than 25 µM. In addition, the TGI in [7] is more than 25 µM; in test [8], more than 25 µM; in test [9], 6.99 µM; in [10], more than 25 µM.
With `CC(=O)c1ccc2c(c1)c1cc(C(C)=O)ccc1n2CCNC(C)C`, the GI50 in test [1] was 0.417 µM; in test [2], 0.326 µM; in [3], 0.433 µM; in test [4], 478 nM; in [5], 1290 nM; in [6], 308 nM. Besides, the GI50 in test [7] is 427 nM; in [8], 386 nM; in test [9] it was 0.398 µM; in test [10], 249 nM. Besides, the TGI in test [1] was 3.33 µM; in test [2], 1.47 µM; in [3], 4.31 µM; in [4], 2020 nM; in [5] it was 3.97 µM; in [6] it was 1.05 µM. The TGI in [7] turned out to be 3.4 µM; in test [8], 6.05 µM; in test [9], 1.89 µM; in test [10], 2.34 µM.
As to `C=C1CC[C@@H]2[C@](C)(COC(C)=O)[C@H](OC(C)=O)CC[C@@]2(C)[C@@H]1CC(Nc1ccc(S(=O)(=O)NC(C)=O)cc1)C1=CCOC1=O` (some centres undefined), the GI50 is 8.78 µM in test [1]; 3.69 µM in test [2]; 8.41 µM in [3]; 2390 nM in [4]; 2320 nM in [5]; 1840 nM in test [6]. In addition, the GI50 in test [7] was 5110 nM; in test [8] it was 3490 nM; in test [9], 10.3 µM; in test [10] it was 1610 nM. Also, the TGI in [1] stood at 20.5 µM; in test [2], 13.2 µM; in test [3] it was 18.3 µM; in test [4], 7770 nM; in test [5] it was 7.93 µM; in test [6], 6.53 µM. Further, the TGI in test [7] worked out at 15.9 µM; in test [8], 12 µM; in test [9], 20.1 µM; in [10], 3.58 µM.
As to `O=C(Cc1ccc(/C=C/C(=O)c2ncc[nH]2)cc1)Nc1ccc(F)cc1`, the GI50 in [1] is 5.1 µM; in test [2], 6.26 µM; in test [3] it was 6.94 µM; in test [4] it was 845 nM; in [5] it was 2730 nM; in [6] it was 1270 nM. In addition, the GI50 was 2100 nM in test [7], 1200 nM in test [8], 8.92 µM in [9] and 1430 nM in test [10]. In addition, the TGI in test [1] is 26.3 µM; in test [2], 16.6 µM; in test [3], more than 33.3 µM; in test [4], 2660 nM; in [5] it was 11.3 µM; in test [6] it was 7.46 µM. Besides, the TGI was 7.91 µM in test [7], 4.5 µM in [8], 22.9 µM in test [9] and 6.78 µM in test [10].
For `CCOC(=O)c1cc(C(=O)c2cc(OC)c(OC)c(OC)c2)n2ncccc12`, the GI50 was 3.02 µM in test [1]; 4.68 µM in test [2]; 0.621 µM in [3]; 292 nM in test [4]; 761 nM in test [5]; 316 nM in test [6]. Besides, the GI50 in test [7] was 342 nM; in test [8], 444 nM; in [9], 0.0466 µM; in [10] it was 185 nM. Moreover, the TGI in test [1] is more than 100 µM; in test [2], more than 100 µM; in test [3], more than 100 µM; in test [4], 2280 nM; in [5], more than 100 µM; in test [7], more than 100 µM. The figures for the TGI in test [8], in [9] and in test [10] were 37.1 µM, 0.742 µM and more than 100 µM, respectively.
Take `O=c1c2c(=NCCN3CCCC3)cc3c(=O)n(CCCN4CCOCC4)c(=O)c4c(-c5ccc(CN6CCCC6)cc5)cc(c(O)n1CCCN1CCOCC1)c2c4-3`: the GI50 is 0.0781 µM in test [1]; 0.156 µM in [2]; 0.0288 µM in test [3]; 61.7 nM in test [4]; 116 nM in test [5]; 36.8 nM in test [6]. Besides, the GI50 was 66.1 nM in test [7], 41.2 nM in test [8], 0.0381 µM in [9] and 18.6 nM in test [10]. Further, the TGI in test [1] was 0.567 µM; in [2], 0.557 µM; in [3] it was 1.39 µM; in [4] it was 274 nM; in test [5] it was 0.5 µM; in test [6] it was 0.409 µM. The TGI in test [7] worked out at 0.841 µM; in test [8], 1.36 µM; in test [9] it was 0.155 µM; in test [10] it was 0.342 µM.
As to `CCOC(=O)c1ccc(NC(=O)Nc2nncs2)cc1`, the GI50 was 0.952 µM in test [1]; 0.25 µM in [2]; 0.41 µM in test [3]; 162 nM in test [4]; 735 nM in test [5]; 499 nM in test [6]. The GI50 was 136 nM in test [7], 250 nM in test [8], 0.23 µM in test [9] and 81.8 nM in test [10]. The TGI in test [1] stood at 22.9 µM; in test [2], 56 µM; in test [3], 26.1 µM; in [4], 2360 nM; in test [5], 13.3 µM; in test [6] it was 10.2 µM. Moreover, the TGI in [7] is 11.8 µM; in [8], 12.7 µM; in [9], 0.978 µM; in [10], more than 100 µM.
